Laboratory results as given in US20220194918A1, “PLEUROMULIN LIPOIC ACID ESTER WITH ANTIBACTERIAL ACTIVITY AND A METHOD OF PREPARING THE SAME” (SHAANXI UNIVERSITY OF SCIENCE AND TECHNOLOGY, priority 2020, published 2022).

What was measured:
Assay type in all cases: cell-based
[1] = system: multi-resistant Staphylococcus aureus 18-206; experiment: Paper diffusion drug sensitivity test, multi-resistant Staphylococcus aureus 18-206; conditions: for Zone of inhibition: Multi-resistant Staphylococcus aureus 18-206, 30 μg/tablet paper disc, LB plate, 37° C., 24 h; for inhibitory effect (in words): multi-drug resistant Staphylococcus aureus 18-206, FIGS. 1-3 and Table 1
Description: (§1) The antimicrobial efficacy was determined by a paper diffusion drug sensitivity test.
(§2) Experimental strains: multi-resistant Staphylococcus aureus 18-206, multi-resistant Staphylococcus aureus 18-222, multi-resistant Staphylococcus aureus 18-596. The experimental strain was identified by Huashan Hospital Affiliated to Fudan University (Institute of Antibiotic of Fudan University).
(§3) Drug sensitive paper: The drug sensitive paper is a special drug sensitive paper with a diameter of 6.35 mm and a water absorption of 0.02 mL. The control drug was vancomycin (30μg/tablet); the test drugs were pleuromulin (30 μg/tablet), lipoic acid (30 μg/tablet) and pleuromulin lipoic acid ester (30 μg/tablet).
(§4) Reagents: LB agar medium, LA broth medium, 0.5% DMSO solution.
(§5) The experimental strains were inoculated in non-selective medium and placed in air at 37° C. for 24 h. Pick a single colony that grows well and inoculate it into broth medium, incubate at 35° C.±2° C. for 6 hours, and use LA broth medium to calibrate the concentration of the bacterial solution to 0.5 Mie turbidimetric tube (1.5×10^8 CFU/mL). A bacterial suspension is obtained.
(§6) Weigh the LB dry powder, sterilize at 103.4 Kpa, 121.3° C. high-pressure steam for 15 min, and then put it in a 40° C.-50° C. water bath. Place a sterile empty plate (inner diameter 9 cm) on the surface of the ultra-clean table water table, shake and shake LB, and then pour the plate. The thickness of each plate is 3 mm to 4 mm. After the plate is cooled at room temperature, store it in the refrigerator at 2° C.-8° C. Use a sterile cotton swab to dip the bacterial solution, and evenly coat the surface of the LB plate 3 times. After inoculation of the bacterial suspension, the LB plate was dried at room temperature for 3 min to 5 min. Use sterile forceps to closely attach the antibacterial drug paper to the dish. Put the dish upside down and place it in a 37° C. incubator for 24 h. Observe the result and measure the diameter. Taking 0.5% DMSO solution as a negative control, the antibacterial activity is expressed by the diameter of the inhibition zone. The inhibition zone 17 mm, sensitive; the inhibition zone is 15 mm-16 mm, intermediary; the inhibition zone 14 mm, drug resistance.

[2] = system: multi-resistant Staphylococcus aureus 18-222; experiment: Paper diffusion drug sensitivity test, multi-resistant Staphylococcus aureus 18-222; conditions: for Zone of inhibition: Multi-resistant Staphylococcus aureus 18-222, 30 μg/tablet paper disc, LB plate, 37° C., 24 h; for inhibitory effect (in words): multi-drug resistant Staphylococcus aureus 18-222, FIGS. 1-3 and Table 1
Description: as §1, §2, §3, §4, §5, §6

[3] = system: multi-resistant Staphylococcus aureus 18-596; experiment: Paper diffusion drug sensitivity test, multi-resistant Staphylococcus aureus 18-596; conditions: for Zone of inhibition: Multi-resistant Staphylococcus aureus 18-596, 30 μg/tablet paper disc, LB plate, 37° C., 24 h; for inhibitory effect (in words): multi-drug resistant Staphylococcus aureus 18-596, FIGS. 1-3 and Table 1
Description: as §1, §2, §3, §4, §5, §6

Q: With `CN[C@H](CC(C)C)C(=O)N[C@H]1C(=O)N[C@@H](CC(N)=O)C(=O)N[C@H]2C(=O)N[C@H]3C(=O)N[C@H](C(=O)N[C@H](C(=O)O)c4cc(O)cc(O)c4-c4cc3ccc4O)[C@H](O)c3ccc(c(Cl)c3)Oc3cc2cc(c3O[C@@H]2O[C@H](CO)[C@@H](O)[C@H](O)[C@H]2O[C@H]2C[C@](C)(N)[C@H](O)[C@H](C)O2)Oc2ccc(cc2Cl)[C@H]1O` [Vancomycin] as the compound, how does the Zone of inhibition [1] read?
A: 17 mm

Q: And the Zone of inhibition [2]?
A: 18 mm

Q: And the Zone of inhibition [3]?
A: 21 mm

Q: Which results are given for `C=C[C@]1(C)C[C@@H](OC(=O)COC(=O)CCCCC2CCSS2)[C@]2(C)CC[C@@H](C)[C@@]3(CCC(=O)[C@@H]23)[C@@H](C)[C@@H]1O` (stereo partly drawn) [Pleuromulin lipoic acid ester, 2-(((3aS,4R,5S,6S, 8R,9R,9aR,12R)-5-hydroxy-4,6,9,12-tetramethyl-1-oxo-6-vinyldecahydro-3 a, 9-propanocyclopenta[8]annulen-8-yl)oxy)-2-oxoethyl 5-(1,2-dithiolan-3-yl)pentanoate]?
A: Zone of inhibition [1]: 16 mm; inhibitory effect (in words) [1]: strong inhibitory effects; Zone of inhibition [2]: 16 mm; inhibitory effect (in words) [2]: strong inhibitory effects; Zone of inhibition [3]: 20 mm; inhibitory effect (in words) [3]: strong inhibitory effects; diameter of bacteriostatic zone ([3]; multidrug resistant Staphylococcus aureus 18-596): up to 21 mm

Q: Which Zone of inhibition [1] does the source give for `C=C[C@]1(C)C[C@@H](OC(=O)CO)[C@]2(C)[C@H](C)CC[C@]3(CCC(=O)[C@H]32)[C@@H](C)[C@@H]1O` [Pleuromulin] here?
A: 0 mm

Q: And the “inhibitory effect (in words)” value [1]?
A: no inhibitory effect

Q: What about the Zone of inhibition [2] of the same compound?
A: 0 mm

Q: What about the “inhibitory effect (in words)” value [2] of the same compound?
A: no inhibitory effect

Q: What about the Zone of inhibition [3] of the same compound?
A: 0 mm

Q: What about the “inhibitory effect (in words)” value [3] of the same compound?
A: no inhibitory effect

Q: What does the source list for `O=C(O)CCCC[C@@H]1CCSS1` (racemic) [Lipoic acid]?
A: Zone of inhibition [1]: 0 mm; inhibitory effect (in words) [1]: no inhibitory effect; Zone of inhibition [2]: 0 mm; inhibitory effect (in words) [2]: no inhibitory effect; Zone of inhibition [3]: 0 mm; inhibitory effect (in words) [3]: no inhibitory effect
